In PubChem BioAssay AID1919001 (Molecular Pharmacology Branch, DTP, NCI, 2023):
Several values for one entry are separate records, joined by “and”; a condition that tells them apart may be missing. Identical values can stand only once.

System: 699152-130-R-J1-PDC complex spheroid growth
Assay: Anticancer human tumor 699152-130-R-J1-PDC patient-derived pancreatic carcinoma cell line growth inhibition [AhR]
Details: for viability, T/C: stronger effect = lower value
In short: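 Agents were dosed in half-log steps down from roughly clinical Cmax, or from 10 microM where Cmax was unknown, alone and with AhR antagonists. Read-out: percent test/control growth of tumor spheroids containing HUVEC and MSC stromal cells.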

[1] = curve of first compound, second compound 0.1 µM
[2] = curve of first compound, second compound 0.316 µM
[3] = curve of first compound, second compound 1 µM
[4] = curve of first compound, second compound 3.16 µM
[5] = curve of first compound, second compound 10 µM
[6] = second compound 0.1 µM, first compound 0.0316 µM
[7] = second compound 0.1 µM, first compound 0.1 µM
[8] = second compound 0.1 µM, first compound 0.316 µM
[9] = second compound 0.1 µM, first compound 1 µM
[10] = second compound 0.1 µM, first compound 3.16 µM
[11] = second compound 0.1 µM, first compound 10 µM
[12] = second compound 0.316 µM, first compound 0.0316 µM
[13] = second compound 0.316 µM, first compound 0.1 µM
[14] = second compound 0.316 µM, first compound 0.316 µM
[15] = second compound 0.316 µM, first compound 1 µM
[16] = second compound 0.316 µM, first compound 3.16 µM
[17] = second compound 0.316 µM, first compound 10 µM
[18] = second compound 1 µM, first compound 0.0316 µM
[19] = second compound 1 µM, first compound 0.1 µM
[20] = second compound 1 µM, first compound 0.316 µM
[21] = second compound 1 µM, first compound 1 µM
[22] = second compound 1 µM, first compound 3.16 µM
[23] = second compound 1 µM, first compound 10 µM
[24] = second compound 3.16 µM, first compound 0.0316 µM
[25] = second compound 3.16 µM, first compound 0.1 µM
[26] = second compound 3.16 µM, first compound 0.316 µM
[27] = second compound 3.16 µM, first compound 1 µM
[28] = second compound 3.16 µM, first compound 3.16 µM
[29] = second compound 3.16 µM, first compound 10 µM
[30] = second compound 10 µM, first compound 0.0316 µM
[31] = second compound 10 µM, first compound 0.1 µM
[32] = second compound 10 µM, first compound 0.316 µM
[33] = second compound 10 µM, first compound 1 µM
[34] = second compound 10 µM, first compound 3.16 µM
[35] = second compound 10 µM, first compound 10 µM
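Note: compound exposure lasted 7 days after spheroids had grown for 3 days.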

Which IC50 [1] does the source give for NS(=O)(=O)OCC1CC(n2ccc3c(NC4CCc5ccccc54)ncnc32)CC1O (stereo unspecified) + CC(CO)NC(=O)c1cc(-c2ccc(Cl)cc2)nn(-c2cnn(C)c2)c1=O here?
Its IC50 is 831 nM.

And the IC50 [2]?
Its IC50 is 765 nM.

What about the IC50 [3] of the same molecule?
The IC50 was 679 nM.

What about the IC50 [4] of the same molecule?
The IC50 was 626 nM.

What about the IC50 [5] of the same molecule?
Its IC50 is 602 nM.

And the viability, T/C [6]?
Its viability, T/C is 108%.

And the viability, T/C [7]?
Its viability, T/C is 127%.

What about the viability, T/C [8] of the same molecule?
Its viability, T/C is 120%.

What about the viability, T/C [9] of the same molecule?
Its viability, T/C is 36.9%.

What about the viability, T/C [10] of the same molecule?
The viability, T/C was 25.2%.

And the viability, T/C [11]?
Its viability, T/C is 29.3%.

And the viability, T/C [12]?
Its viability, T/C is 116%.

And the viability, T/C [13]?
The viability, T/C was 132%.

And the viability, T/C [14]?
Its viability, T/C is 97.2%.

And the viability, T/C [15]?
The viability, T/C was 36.8%.

And the viability, T/C [16]?
Its viability, T/C is 27.5%.

What about the viability, T/C [17] of the same molecule?
The viability, T/C was 29.1%.

And the viability, T/C [18]?
The viability, T/C was 115%.

What about the viability, T/C [19] of the same molecule?
Its viability, T/C is 126%.

And the viability, T/C [20]?
Its viability, T/C is 91.1%.

And the viability, T/C [21]?
The viability, T/C was 30.4%.

What about the viability, T/C [22] of the same molecule?
The viability, T/C was 23.1%.

And the viability, T/C [23]?
Its viability, T/C is 31.4%.

What about the viability, T/C [24] of the same molecule?
The viability, T/C was 114%.

And the viability, T/C [25]?
The viability, T/C was 127%.

What about the viability, T/C [26] of the same molecule?
Its viability, T/C is 80.2%.

And the viability, T/C [27]?
Its viability, T/C is 31.6%.

And the viability, T/C [28]?
Its viability, T/C is 25.5%.

And the viability, T/C [29]?
The viability, T/C was 30.6%.

What about the viability, T/C [30] of the same molecule?
The viability, T/C was 115%.

What about the viability, T/C [31] of the same molecule?
Its viability, T/C is 104%.

And the viability, T/C [32]?
Its viability, T/C is 69.5%.

What about the viability, T/C [33] of the same molecule?
The viability, T/C was 34.1%.

And the viability, T/C [34]?
Its viability, T/C is 27.1%.

And the viability, T/C [35]?
Its viability, T/C is 30.8%.

How did the viability, T/C (compound 0.0316 µM) turn out when CC1COCCN1c1cc(C2(S(C)(=N)=O)CC2)nc(-c2ccnc3[nH]ccc23)n1 (stereo unspecified) was run?
Its viability, T/C is 100% and 99.4% and 98.3%.

What about the viability, T/C (compound 0.1 µM) of the same molecule?
Its viability, T/C is 103% and 95.1% and 112%.

What about the viability, T/C (compound 0.316 µM) of the same molecule?
The viability, T/C was 91.5% and 95.4% and 103%.

And the viability, T/C (compound 1 µM)?
The viability, T/C was 96.7% and 88.4% and 104%.

What about the viability, T/C (compound 3.16 µM) of the same molecule?
Its viability, T/C is 93% and 82.9% and 89.2%.

And the viability, T/C (compound 10 µM)?
Its viability, T/C is 78% and 67.5% and 71.1%.

What about the IC50 (curve of compound) of the same molecule?
Its IC50 is over 10000 nM.

For Cn1ncnc1C1c2n[nH]c(=O)c3cc(F)cc(c23)NC1c1ccc(F)cc1 (stereo unspecified), which viability, T/C (compound 0.000316 µM) is on record?
Its viability, T/C is 103% and 92% and 97.7%.

And the viability, T/C (compound 0.001 µM)?
The viability, T/C was 100% and 90.9% and 98.2%.

What about the viability, T/C (compound 0.00316 µM) of the same molecule?
Its viability, T/C is 109% and 95.2% and 113%.

What about the viability, T/C (compound 0.01 µM) of the same molecule?
The viability, T/C was 101% and 102% and 111%.

And the viability, T/C (compound 0.0316 µM)?
The viability, T/C was 102% and 100% and 97.5%.

And the viability, T/C (compound 0.1 µM)?
Its viability, T/C is 104% and 86.2% and 91%.

What about the IC50 (curve of compound) of the same molecule?
Its IC50 is over 100 nM.

What does the source list for COc1ccc([C@@H](O)c2cc(-c3ncnc4cc(N5CCOCC5)ccc34)c(F)cc2Cl)nn1 + Cc1cncc(-c2nc(NCCc3c[nH]c4ccccc34)c3ncn(C(C)C)c3n2)c1?
IC50 [1]: 6290 nM; IC50 [2]: 5200 nM; IC50 [3]: 7450 nM; IC50 [4]: 4640 nM; IC50 [5]: < 31.6 nM; viability, T/C [6]: 100%; viability, T/C [7]: 104%; viability, T/C [8]: 89.4%; viability, T/C [9]: 78.9%; viability, T/C [10]: 65.4%; viability, T/C [11]: 40.1%; viability, T/C [12]: 95%; viability, T/C [13]: 102%; viability, T/C [14]: 89.2%; viability, T/C [15]: 84.4%; viability, T/C [16]: 59.7%; viability, T/C [17]: 36.8%; viability, T/C [18]: 104%; viability, T/C [19]: 103%; viability, T/C [20]: 109%; viability, T/C [21]: 91%; viability, T/C [22]: 76.2%; viability, T/C [23]: 41.2%; viability, T/C [24]: 55.6%; viability, T/C [25]: 66%; viability, T/C [26]: 60.6%; viability, T/C [27]: 59.8%; viability, T/C [28]: 54.3%; viability, T/C [29]: 40.2%; viability, T/C [30]: 4.98%; viability, T/C [31]: 5.41%; viability, T/C [32]: 4.5%; viability, T/C [33]: 6.28%; viability, T/C [34]: 6.8%; viability, T/C [35]: 9.11%

Which results are given for CC(C)CC(NC(=O)C(Cc1ccccc1)NC(=O)c1cnccn1)B(O)O (stereo unspecified)?
viability, T/C (compound 0.000949 µM): 107% and 97.5% and 95.3%; viability, T/C (compound 0.003 µM): 107% and 101% and 94.5%; viability, T/C (compound 0.00949 µM): 99.3% and 79% and 30.8%; viability, T/C (compound 0.03 µM): 1.12% and 0.95% and 0.7%; viability, T/C (compound 0.0949 µM): 0.51% and 0.48% and 0.69%; viability, T/C (compound 0.3 µM): 0.46% and 0.87% and 0.49%; IC50 (curve of compound): 16.9 nM and 14.5 nM and 6.7 nM
